Test results as given in patent US20240246908A1 (ORION CORPORATION, priority 2021, published 2024).

System: YAP-TEAD
Assay: TEAD inhibition, Hippo Pathway TEAD Reporter MCF-7 luciferase assay
Format: cell-based
Conditions: Homo sapiens, MCF7, 24 h, Hippo Pathway TEAD Reporter MCF-7 cells, luciferase activity after 24 h; read-out: IC50 of the test compounds on YAP-TEAD inhibition (Group)
How it was run: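 IC50 derived from ONE-Glo luciferase luminescence after 24 h compound exposure (11 concentrations in quadruplicate, 0.1% DMSO control). Reporter: MCF-7 line expressing firefly luciferase under TEAD elements, constitutively activated by nuclear YAP1.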

`COc1ccc(Oc2ccc(F)cc2)cc1NC(=O)C1CCC(=O)N1C` (stereo not drawn) [Compound 260, N-(5-(4-Fluorophenoxy)-2-methoxyphenyl)-1-methyl-5-oxopyrrolidine-2-carboxamide] gave an IC50 of 0.05 to 0.3 µM.
`CN1C(=O)CCC1C(=O)Nc1cc(Oc2ccc(C(F)(F)F)cc2)cc2cn[nH]c12` (stereo not drawn) [Compound 225, 1-Methyl-5-oxo-N-(5-(4-(trifluoromethyl)phenoxy)-1H-indazol-7-yl)-pyrrolidine-2-carboxamide] was tested, and the IC50 was 0.301 to 2 µM.
Work on `COc1ccc(/C=C/C2CCC(F)(F)CC2)cc1NC(=O)C1CN(C)C(=O)N1C` (stereo not drawn) [Compound 408, (E)-N-(5-(2-(4,4-Difluorocyclohexyl)vinyl)-2-methoxyphenyl)-1,3-dimethyl-2-oxoimidazolidine-4-carboxamide] yielded an IC50 of 0.05 to 0.3 µM.
Work on `COc1cc(F)c(Oc2ccc(C(F)(F)F)cn2)cc1NC(=O)[C@H]1COC(=O)N1C` [Compound 154, (R)—N-(4-Fluoro-2-methoxy-5-((5-(trifluoromethyl)pyridin-2-yl)-oxy)phenyl)-3-methyl-2-oxooxazolidine-4-carboxamide] yielded an IC50 of under 0.05 µM.
For `COc1ccc(Oc2ccc3c(c2)CCO3)cc1NC(=O)C1CCC(=O)N1C` (stereo not drawn) [Compound 315, N-(5-((2,3-Dihydrobenzofuran-5-yl)oxy)-2-methoxyphenyl)-1-methyl-5-oxopyrrolidine-2-carboxamide], the IC50 was 0.05 to 0.3 µM.
`CN1C(=O)NC[C@@H]1C(=O)Nc1cc(Oc2ccc(C(F)(F)F)cn2)cc2ccoc12` [Compound 217, (R)-3-Methyl-2-oxo-N-(5-((5-(trifluoromethyl)pyridin-2-yl)oxy)benzofuran-7-yl)imidazoledine-4-carboxamide] showed an IC50 of under 0.05 µM.
Work on `COc1ccc(Oc2cc(C(F)(F)F)ccn2)cc1NC(=O)C1CCNC(=O)C1` (stereo not drawn) [Compound 327, N-(2-methoxy-5-((4-(trifluoromethyl)pyridin-2-yl)oxy)phenyl)-2-oxopiperidine-4-carboxamide] yielded an IC50 of 0.301 to 2 µM.
Molecule `COc1ccc(Oc2ccc(C(F)(F)F)cc2)cc1NC(=O)[C@@H]1CCC(=O)NC1` [Compound 120, (R)—N-(2-Methoxy-5-(4-(trifluoromethyl)phenoxy)phenyl)-6-oxopiperidine-3-carboxamide] has an IC50 of 0.301 to 2 µM.
`CN1CC(=O)N(C)C(C(=O)Nc2cc(Oc3ccc(C(F)(F)F)cc3)cc3c2OCC3)C1` (stereo not drawn) [Compound 383, 1,4-Dimethyl-6-oxo-N-(5-(4-(trifluoromethyl)phenoxy)-2,3-dihydrobenzofuran-7-yl)piperazine-2-carboxamide] was tested, and the IC50 was 0.05 to 0.3 µM.
For `COc1ccc(OC2CC3CCC2C3)cc1NC(=O)C1CCC(=O)N1C` (stereo not drawn) [Compound 96, N-(5-(Bicyclo[2.2.1]heptan-2-yloxy)-2-methoxyphenyl)-1-methyl-5-oxo-pyrrolidine-2-carboxamide], the IC50 was 0.05 to 0.3 µM.
For `COc1ccc(Oc2ccc(C(F)(F)F)cn2)cc1NC(=O)[C@@H]1CNC(=O)N1C` [Compound 130, (S)—N-(2-Methoxy-5-((5-(trifluoromethyl)pyridin-2-yl)oxy)phenyl)-3-methyl-2-oxoimidazolidine-4-carboxamide], the IC50 was under 0.05 µM.
For `O=C(Nc1cc(Oc2cccc(C(F)(F)F)c2)cc2c1OCCO2)C1CCS(=O)(=O)N1` (stereo not drawn) [Compound 54, N-(7-(3-(Trifluoromethyl)phenoxy)-2,3-dihydrobenzo[b][1,4]dioxin-5-yl)-isothiazolidine-3-carboxamide 1,1-dioxide], the IC50 was 0.301 to 2 µM.
Molecule `CN1C(=O)CCC1C(=O)Nc1cc(Cl)cc(Oc2ccc(C(F)(F)F)cn2)c1` (stereo not drawn) [Compound 352, N-(3-Chloro-5-((5-(trifluoromethyl)pyridin-2-yl)oxy)phenyl)-1-methyl-5-oxopyrrolidine-2-carboxamide] has an IC50 of under 0.05 µM.
Work on `COc1cc(F)c(COc2cccc(F)c2)cc1NC(=O)C1CCC(=O)N1` (stereo not drawn) [Compound 73, N-(4-Fluoro-5-((3-fluorophenoxy)methyl)-2-methoxyphenyl)-5-oxopyrrolidine-2-carboxamide] yielded an IC50 of 0.05 to 0.3 µM.
With `CN1C(=O)CC[C@@H]1C(=O)Nc1cc(/C=C/C2CCC(F)(F)CC2)cc2c1OCC2` [Compound 405, (R,E)-N-(5-(2-(4,4-Difluorocyclohexyl)vinyl)-2,3-dihydrobenzofuran-7-yl)-1-methyl-5-oxopyrrolidine-2-carboxamide] the IC50 was under 0.05 µM.
Molecule `CNC(=O)CN1C(=O)CCC1C(=O)Nc1cc(Oc2ccc(C(F)(F)F)cc2)cc2c1OCC2` (stereo not drawn) [Compound 188, 1-(2-(Methylamino)-2-oxoethyl)-5-oxo-N-(5-(4-(trifluoromethyl)phenoxy)-2,3-dihydrobenzofuran-7-yl)pyrrolidine-2-carboxamide] has an IC50 of 0.301 to 2 µM.
Molecule `CN1C(=O)CC[C@H]1C(=O)Nc1cc(Oc2ccc(C(F)(F)F)cc2)ccc1F` [Compound 363, (S)—N-(2-Fluoro-5-(4-(trifluoromethyl)phenoxy)phenyl)-1-methyl-5-oxo-pyrrolidine-2-carboxamide] has an IC50 of under 0.05 µM.
Work on `COc1ccc(Oc2ccc(C(F)(F)F)c(F)n2)cc1NC(=O)[C@@H]1CCC(=O)N1C` [Compound 401, (S)—N-(5-((6-Fluoro-5-(trifluoromethyl)pyridin-2-yl)oxy)-2-methoxyphenyl)-1-methyl-5-oxopyrrolidine-2-carboxamide] yielded an IC50 of under 0.05 µM.
`CN1C(=O)CCC1C(=O)Nc1cc(Oc2cccc(C(F)(F)F)c2)cc2ccoc12` (stereo not drawn) [Compound 28, 1-Methyl-5-oxo-N-(5-(3-(trifluoromethyl)phenoxy)benzofuran-7-yl)pyrrolidine-2-carboxamide] gave an IC50 of under 0.05 µM.
For `COc1ccc(Oc2ccc(C(F)(F)F)cc2)cc1NC(=O)C1CCC(=O)N1CC(N)=O` (stereo not drawn) [Compound 136, 1-(2-Amino-2-oxoethyl)-N-(2-methoxy-5-(4-(trifluoromethyl)phenoxy)phenyl)-5-oxopyrrolidine-2-carboxamide], the IC50 was under 0.05 µM.
Work on `COc1ccc(Oc2ccc(C(F)(F)F)cc2)cc1NC(=O)C1CS(=O)(=O)N1C` (stereo not drawn) [Compound 71, N-(2-Methoxy-5-(4-(trifluoromethyl)phenoxy)phenyl)-2-methyl-1,2-thiazeti-dine-3-carboxamide 1,1-dioxide] yielded an IC50 of 0.05 to 0.3 µM.
Molecule `CN1C(=O)CCC1C(=O)Nc1cc(COc2ccc(F)c(F)c2)cc2c1CCO2` (stereo not drawn) [Compound 243, N-(6-((3,4-Difluorophenoxy)methyl)-2,3-dihydrobenzofuran-4-yl)-1-methyl-5-oxopyrrolidine-2-carboxamide] has an IC50 of 0.301 to 2 µM.
Molecule `COc1ccc(Oc2ccc(F)cc2F)cc1NC(=O)C1CCC(=O)N1C(C)=O` (stereo not drawn) [Compound 44, 1-Acetyl-N-(5-(2,4-difluorophenoxy)-2-methoxyphenyl)-5-oxopyrrolidine-2-carboxamide] has an IC50 of 0.301 to 2 µM.
Molecule `COc1ccc(Oc2ccc(C(F)(F)F)cc2)cc1NC(=O)C1CCC(=O)N1C1CC1` (stereo not drawn) [Compound 110, 1-Cyclopropyl-N-(2-methoxy-5-(4-(trifluoromethyl)phenoxy)phenyl)-5-oxo-pyrrolidine-2-carboxamide] has an IC50 of under 0.05 µM.
`CN1C(=O)NC[C@H]1C(=O)Nc1cc(Oc2ccc(C(F)(F)F)cn2)cc2c1OCC2` [Compound 168, (S)-3-Methyl-2-oxo-N-(5-((5-(trifluoromethyl)pyridin-2-yl)oxy)-2,3-dihydro-benzofuran-7-yl)imidazolidine-4-carboxamide] was tested, and the IC50 was under 0.05 µM.
`COc1ccc(Oc2ccc(C(F)(F)F)c(OC)c2)cc1NC(=O)C1CCC(=O)N1C` (stereo not drawn) [Compound 391, N-(2-Methoxy-5-(3-methoxy-4-(trifluoromethyl)phenoxy)phenyl)-1-methyl-5-oxopyrrolidine-2-carboxamide] showed an IC50 of under 0.05 µM.
Work on `COc1ccc(Oc2cccc(C(F)(F)F)c2)cc1NC(=O)C1CCC(=O)N1C(C)=O` (stereo not drawn) [Compound 29, 1-Acetyl-N-(2-methoxy-5-(3-(trifluoromethyl)phenoxy)phenyl)-5-oxo-pyrrolidine-2-carboxamide] yielded an IC50 of 0.05 to 0.3 µM.
`CN1C(=O)CC[C@@H]1C(=O)Nc1cc(Oc2ccc(C(F)(F)F)cn2)cc2cccnc12` [Compound 281, (R)-1-Methyl-5-oxo-N-(6-((5-(trifluoromethyl)pyridin-2-yl)oxy)quinolin-8-yl)pyrrolidine-2-carboxamide] was tested, and the IC50 was 0.05 to 0.3 µM.
Molecule `COc1ccc(Oc2cccc(C(F)(F)F)c2)cc1NC(=O)C1(C)CCC(=O)N1` (stereo not drawn) [Compound 14, N-(2-Methoxy-5-(3-(trifluoromethyl)phenoxy)phenyl)-2-methyl-5-oxopyrrolidi-ne-2-carboxamide] has an IC50 of 0.301 to 2 µM.
Work on `C[C@@H]1Cc2cc(Oc3ccc(C(F)(F)F)cn3)cc(NC(=O)[C@H]3CCC(=O)N3C)c2O1` [Compound 173, (2R)-1-Methyl-N-(2-methyl-5-((5-(trifluoromethyl)pyridin-2-yl)oxy)-2,3-di-hydrobenzofuran-7-yl)-5-oxopyrrolidine-2-carboxamide] yielded an IC50 of 0.05 to 0.3 µM.
With `COc1ccc(Oc2ccc(C(F)(F)F)cc2)cc1NC(=O)c1coc(=O)[nH]1` [Compound 388, N-(2-Methoxy-5-(4-(trifluoromethyl)phenoxy)phenyl)-2-oxo-2,3-dihydrooxazole-4-carboxamide] the IC50 was 0.301 to 2 µM.
`COc1c(F)cc(COc2cccc(F)c2)cc1NC(=O)C1CCC(=O)N1` (stereo not drawn) [Compound 36, N-(3-Fluoro-5-((3-fluorophenoxy)methyl)-2-methoxyphenyl)-5-oxopyrrolidine-2-carboxamide] showed an IC50 of 0.05 to 0.3 µM.
`COc1ccc(Oc2ccc(Cl)cc2F)cc1NC(=O)C1CCC(=O)N1C` (stereo not drawn) [Compound 385, N-(5-(4-Chloro-2-fluorophenoxy)-2-methoxyphenyl)-1-methyl-5-oxopyrrolidine-2-carboxamide] showed an IC50 of under 0.05 µM.
For `COc1ccc(Oc2ncc(C(F)(F)F)cc2Cl)cc1NC(=O)[C@@H]1CNC(=O)N1C` [Compound 345, (S)—N-(5-((3-Chloro-5-(trifluoromethyl)pyridin-2-yl)oxy)-2-methoxyphenyl)-3-methyl-2-oxoimidazolidine-4-carboxamide], the IC50 was under 0.05 µM.
Work on `COc1ccc(Oc2ccc(OC(F)(F)F)cc2)cc1NC(=O)C1CCC(=O)N1` (stereo not drawn) [Compound 300, N-(2-Methoxy-5-(4-(trifluoromethoxy)phenoxy)phenyl)-5-oxopyrrolidine-2-carboxamide] yielded an IC50 of under 0.05 µM.
`COc1ccc(Oc2ccc(C(F)(F)F)cc2)cc1NC(=O)[C@H]1CN(C)C(=O)N1C` [Compound 227, (R)—N-(2-Methoxy-5-(4-(trifluoromethyl)phenoxy)phenyl)-1,3-dimethyl-2-oxoimidazolidine-4-carboxamide] showed an IC50 of under 0.05 µM.
